From patent publication US20230279016A1, “Tetrahydropyrazolopyrimidines and Related Analogs for Inhibiting YAP/TAZ-TEAD” (THE KATHOLIEKE UNIVERSITEIT LEUVEN, priority 2021, published 2023)

Experiments:
Assay type in all cases: cell-based
[1] = system: NCI-H226 mesothelioma cell line; assay: Mesothelioma cell line proliferation assay, NCI-H226; conditions: NCI-H226, 6 days with compound, cell viability by ATPlite
Method: (§1) Mesothelioma cell lines, NCI-H226 and NCI-H2052 (all sourced from the ATCC cell culture collection) are plated in 96-well plates (Corning® 96 Well White Polystyrene Microplate clear flat bottom, white polystyrene (TC-Treated)), at 1500 cells/well in full medium (RPMI 1640 ATCC modification with L-glutamine, HEPES, Phenol Red, Sodium Pyruvate, High glucose, Low sodium bicarbonate and 10% fetal bovine serum). Cells are incubated overnight at 37° C. in an incubator with 5% CO2. Then compounds, dissolved in DMSO, are added in dose-response. Cells are incubated with compound dilutions for another 6 days at 37° C. in an incubator with 5% CO2. Cell viability is quantitated using the ATPlite kit (Perkin-Elmer) and the luminescence is read-out using an Envision instrument (Perkin-Elmer). The amount of relative light units produced using the ATPlite kit is used to calculated percent of inhibition.
(§2) The activities of example compounds tested are depicted in the table below. The activity ranges A, B and C refer to EC50 values in the mesothelioma cell line proliferation assay as described as follows: “A”: EC50 <1 μM; “B” : 1 μM EC50 ≤10 μM and “C” : EC50 >10 μM. NT: not tested.

[2] = system: NCI-H2052 mesothelioma cell line; assay: Mesothelioma cell line proliferation assay, NCI-H2052; conditions: NCI-H2052, 6 days with compound, cell viability by ATPlite
Method: as §1, §2

[3] = system: YAP/TAZ-TEAD transcription; assay: Reporter gene assay for measuring the inhibition of YAP/TAZ-TEAD transcription (TEAD-responsive element luciferase reporter in Hek293T cells); conditions: Hek293T cells transiently transfected with TEAD-responsive element luciferase reporter, 24 hours incubation
How it was run: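 Hek293T cells transiently transfected with TEAD-responsive luciferase reporter, exposed to compound for 24 h at 37° C/5% CO2, then read by luminescence. Percent inhibition normalized to vehicle (0%) and positive control inhibitor (100%); EC50 reported as activity ranges.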

| EC50 [1] [µM] | EC50 [2] [µM] | EC50 [3] [µM] | EC50 ([1]; Homo sapiens, NCI-H226, 144 h) [µM] | EC50 ([3]; Homo sapiens, HEK-293T, 24 h) [µM] | EC50 ([2]; Homo sapiens, NCI-H2052, 144 h) [µM] | Compound |
| --- | --- | --- | --- | --- | --- | --- |
| < 1 | > 10 | < 1 | – | – | – | C=CC(=O)NCC1CN(c2ccc(C(F)(F)F)cc2F)c2ccnn2C1 (single isomer, unassigned) [Cpd. No. 016-En2, (R)- or (S)-N-((4-(2-fluoro-4-(trifluoromethyl)phenyl)-4,5,6,7-tetrahydropyrazolo[1,5-a]pyrimidin-6-yl)methyl)acrylamide] |
| < 1 | > 10 | < 1 | – | – | – | C=CC(=O)NCC1CN(c2ccc(OC(F)(F)F)cc2F)c2ccnn2C1 (single isomer, unassigned) [Cpd. No. 019-En2, (R)- or (S)-N-((4-(2-fluoro-4-(trifluoromethoxy)phenyl)-4,5,6,7-tetrahydropyrazolo[1,5-a]pyrimidin-6-yl)methyl)acrylamide] |
| < 1 | – | < 1 | – | – | < 1 | C=CC(=O)NCC1CN(c2ccc(SC(F)(F)F)cc2)c2ccnn2C1 (single isomer, unassigned) [Cpd. No. 020-En1, (R)- or (S)-N-((4-(4-((trifluoromethyl)thio)phenyl)-4,5,6,7-tetrahydropyrazolo[1,5-a]pyrimidin-6-yl)methyl)acrylamide] |
| > 10 | 1 to 10 | < 1 | – | – | – | C=CC(=O)NCC1CN(c2ccc(SC(F)(F)F)cc2)c2ccnn2C1 (single isomer, unassigned) [Cpd. No. 020-En2, (R)- or (S)-N-((4-(4-((trifluoromethyl)thio)phenyl)-4,5,6,7-tetrahydropyrazolo[1,5-a]pyrimidin-6-yl)methyl)acrylamide] |
| – | < 1 | – | < 1 | < 1 | – | C=CC(=O)NCC1CN(c2ccc(C3CC3)cc2)c2ccnn2C1 (single isomer, unassigned) [Cpd. No. 022-En1, (R)- or (S)-N-((4-(4-cyclopropylphenyl)-4,5,6,7-tetrahydropyrazolo[1,5-a]pyrimidin-6-yl)methyl)acrylamide] |
| < 1 | > 10 | < 1 | – | – | – | C=CC(=O)NCC1CN(c2ccc(C3CC3)cc2)c2ccnn2C1 (single isomer, unassigned) [Cpd. No. 022-En2, (R)- or (S)-N-((4-(4-cyclopropylphenyl)-4,5,6,7-tetrahydropyrazolo[1,5-a]pyrimidin-6-yl)methyl)acrylamide] |
| – | – | – | < 1 | < 1 | < 1 | C=CC(=O)NCC1CN(c2ccc(C(F)(F)F)cc2)c2ccnn2C1 (stereo not drawn) [Cpd. No. 002, N-((4-(4-(trifluoromethyl)phenyl)-4,5,6,7-tetrahydropyrazolo[1,5-a]pyrimidin-6-yl)methyl)acrylamide] |
| – | – | – | < 1 | < 1 | < 1 | C=CC(=O)NCC1CN(c2ccc(Cl)cc2)c2ccnn2C1 (stereo not drawn) [Cpd. No. 005, N-((4-(4-chlorophenyl)-4,5,6,7-tetrahydropyrazolo[1,5-a]pyrimidin-6-yl)methyl)acrylamide] |
| – | – | – | > 10 | < 1 | > 10 | C=CC(=O)NCC1CN(c2ccc(C(F)(F)F)nc2)c2ccnn2C1 (stereo not drawn) [Cpd. No. 007, N-((4-(6-(trifluoromethyl)pyridin-3-yl)-4,5,6,7-tetrahydropyrazolo[1,5-a]pyrimidin-6-yl)methyl)acrylamide] |
| – | < 1 | – | < 1 | < 1 | – | C=CC(=O)NCC1CN(c2ccc(OC(F)(F)F)cc2)c2ccnn2C1 (stereo not drawn) [Cpd. No. 011, N-((4-(4-(trifluoromethoxy)phenyl)-4,5,6,7-tetrahydropyrazolo[1,5-a]pyrimidin-6-yl)methyl)acrylamide] |
| – | < 1 | – | < 1 | < 1 | – | C=CC(=O)NCC1CN(c2ccc(OC(F)F)cc2)c2ccnn2C1 (stereo not drawn) [Cpd. No. 012, N-((4-(4-(difluoromethoxy)phenyl)-4,5,6,7-tetrahydropyrazolo[1,5-a]pyrimidin-6-yl)methyl)acrylamide] |

Continued, compound first:

| Compound | EC50 [1] [µM] | EC50 [2] [µM] | EC50 [3] [µM] | EC50 ([1]; Homo sapiens, NCI-H226, 144 h) [µM] | EC50 ([3]; Homo sapiens, HEK-293T, 24 h) [µM] | EC50 ([2]; Homo sapiens, NCI-H2052, 144 h) [µM] |
| --- | --- | --- | --- | --- | --- | --- |
| C=CC(=O)NCC1CN(c2ccc(OC(F)(F)F)cc2F)c2ccnn2C1 (single isomer, unassigned) [Cpd. No. 019-En1, (R)- or (S)-N-((4-(2-fluoro-4-(trifluoromethoxy)phenyl)-4,5,6,7-tetrahydropyrazolo[1,5-a]pyrimidin-6-yl)methyl)acrylamide] | – | < 1 | – | < 1 | < 1 | – |
| C=CC(=O)NCC1CN(c2ccc(S(F)(F)(F)(F)F)cc2)c2ccnn2C1 (single isomer, unassigned) [Cpd. No. 023-En1, (R)- or (S)-N-((4-(4-(pentafluoro-l6-sulfaneyl)phenyl)-4,5,6,7-tetrahydropyrazolo[1,5-a]pyrimidin-6-yl)methyl)acrylamide] | < 1 | < 1 | < 1 | – | – | – |
| C=CC(=O)NCC1CN(c2ccc(S(F)(F)(F)(F)F)cc2)c2ccnn2C1 (single isomer, unassigned) [Cpd. No. 023-En2, (R)- or (S)-N-((4-(4-(pentafluoro-l6-sulfaneyl)phenyl)-4,5,6,7-tetrahydropyrazolo[1,5-a]pyrimidin-6-yl)methyl)acrylamide] | < 1 | < 1 | < 1 | – | – | – |
| C=CC(=O)NC[C@@H]1CN(Cc2ccccc2)c2ccnn2C1 (single isomer, unassigned) [Cpd. No. 049-En1, (R)- or (S)-((4-benzyl-4,5,6,7-tetrahydropyrazolo[1,5-a]pyrimidin-6-yl)methyl)acrylamide] | 1 to 10 | 1 to 10 | > 20 | – | – | – |
| C=CC(=O)NC1CN(c2ccc(C(F)(F)F)cc2F)c2ccnn2C1 (single isomer, unassigned) [Cpd. No. 065-En1, (R)- or (S)-N-(4-(2-fluoro-4-(trifluoromethyl)phenyl)-4,5,6,7-tetrahydropyrazolo[1,5-a]pyrimidin-6-yl)acrylamide] | – | – | – | < 1 | < 1 | < 1 |
| C=CC(=O)NCC1Cc2c(cnn2C(F)F)N(c2ccc(C(F)(F)F)cc2)C1 (single isomer, unassigned) [Cpd. No. 084-En1, (R)- or (S)-N-((1-(difluoromethyl)-4-(4-(trifluoromethyl)phenyl)-4,5,6,7-tetrahydro-1H-pyrazolo[4,3-b]pyridin-6-yl)methyl)acrylamide] | – | – | – | < 1 | < 1 | < 1 |
| C=CC(=O)NCC1Cc2c(cnn2C(F)F)N(c2ccc(C(F)(F)F)cc2)C1 (single isomer, unassigned) [Cpd. No. 084-En2, (R)- or (S)-N-((1-(difluoromethyl)-4-(4-(trifluoromethyl)phenyl)-4,5,6,7-tetrahydro-1H-pyrazolo[4,3-b]pyridin-6-yl)methyl)acrylamide] | < 1 | < 1 | < 1 | – | – | – |
| C=CC(=O)NC[C@H]1Cc2nn(C(F)F)cc2N(c2ccc(C(F)(F)F)cc2)C1 (single isomer, unassigned) [Cpd. No. 085-En1, (R)- or (S)-N-(2-(difluoromethyl)-4-(4-(trifluoromethyl)phenyl)-4,5,6,7-tetrahydro-2H-pyrazolo[4,3-b]pyridin-6-yl)methyl)acrylamide] | < 1 | < 1 | < 1 | – | – | – |
| C=CC(=O)NCC1Cc2nn(C(F)F)cc2N(c2ccc(C(F)(F)F)cc2)C1 (single isomer, unassigned) [Cpd. No. 085-En2, (R)- or (S)-N-((2-(difluoromethyl)-4-(4-(trifluoromethyl)phenyl)-4,5,6,7-tetrahydro-2H-pyrazolo[4,3-b]pyridin-6-yl)methyl)acrylamide] | – | – | – | < 1 | < 1 | < 1 |
| FC(F)(F)c1ccc(N2CC(C3CC(Br)=NO3)Cn3nccc32)cc1 (single isomer, unassigned) [Cpd. No. 086-Dia1, 3-bromo-5-(4-(4-(trifluoromethyl)phenyl)-4,5,6,7-tetrahydropyrazolo[1,5-a]pyrimidin-6-yl)-4,5-dihydroisoxazole] | – | – | – | < 1 | < 1 | < 1 |
| FC(F)(F)c1ccc(N2CC(C3CC(Br)=NO3)Cn3nccc32)cc1 (single isomer, unassigned) [Cpd. No. 086-Dia2, 3-bromo-5-(4-(4-(trifluoromethyl)phenyl)-4,5,6,7-tetrahydropyrazolo[1,5-a]pyrimidin-6-yl)-4,5-dihydroisoxazole] | < 1 | < 1 | < 1 | – | – | – |
| C=CC(=O)NCC1CN(c2ccc(C(C)C)cc2)c2ccnn2C1 (stereo not drawn) [Cpd. No. 013, N-((4-(4-isopropylphenyl)-4,5,6,7-tetrahydropyrazolo[1,5-a]pyrimidin-6-yl)methyl)acrylamide] | – | – | – | < 1 | < 1 | < 1 |
